Experimental data from publication PMC3874184 (Nucleic Acids Research, 2013).

How the values were obtained:
[1] = target: T1, spTrm10 (spTrm10_FL) (Schizosaccharomyces pombe, UniProt O14214); assay: X-ray crystal structure, […] Å; details: SAM-binding pocket in C-terminal trefoil knot; 1:3 protein:SAH
T1 sequence (O14214 1-304): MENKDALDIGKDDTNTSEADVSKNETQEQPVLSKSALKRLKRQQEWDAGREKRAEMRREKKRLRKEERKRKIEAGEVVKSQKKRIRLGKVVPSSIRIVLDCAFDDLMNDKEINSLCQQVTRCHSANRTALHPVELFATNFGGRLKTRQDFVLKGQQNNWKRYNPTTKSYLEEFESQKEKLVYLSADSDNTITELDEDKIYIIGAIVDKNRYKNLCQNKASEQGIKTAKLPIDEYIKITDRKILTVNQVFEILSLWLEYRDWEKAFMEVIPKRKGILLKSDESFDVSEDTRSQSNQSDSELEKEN

[2] = target: T2, scTrm10_84 (Saccharomyces cerevisiae, UniProt Q12400); assay: X-ray crystal structure, […] Å; details: SAM-binding pocket in C-terminal trefoil knot; 1:3 protein:SAH
T2 sequence (Q12400 84-276): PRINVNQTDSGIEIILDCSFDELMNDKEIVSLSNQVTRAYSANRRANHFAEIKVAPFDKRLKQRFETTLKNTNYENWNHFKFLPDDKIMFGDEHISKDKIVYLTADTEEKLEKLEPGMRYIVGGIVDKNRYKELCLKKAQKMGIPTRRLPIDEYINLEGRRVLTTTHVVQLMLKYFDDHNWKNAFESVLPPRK

[3] = target: T1, spTrm10 (spTrm10_FL); assay: biochemical
[4] = target: spTrm10 (spTrm10_FL) (Schizosaccharomyces pombe, UniProt O14214, N209A); assay: biochemical
spTrm10 (spTrm10_FL) (Schizosaccharomyces pombe, UniProt O14214, N209A), sequence (O14214 whole entry N209A): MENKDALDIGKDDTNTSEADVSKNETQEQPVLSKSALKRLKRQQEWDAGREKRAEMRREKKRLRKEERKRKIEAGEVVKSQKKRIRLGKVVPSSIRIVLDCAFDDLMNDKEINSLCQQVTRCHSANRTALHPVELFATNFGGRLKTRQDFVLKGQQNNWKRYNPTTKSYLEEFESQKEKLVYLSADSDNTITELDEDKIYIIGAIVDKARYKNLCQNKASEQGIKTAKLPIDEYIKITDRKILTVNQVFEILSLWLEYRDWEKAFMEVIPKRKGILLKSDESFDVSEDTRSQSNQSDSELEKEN

SMILES | X-ray crystal structure, 2.04 Å [1] | X-ray crystal structure, 1.76 Å [2] | Kd [3] | Kd [4]
Nc1ncnc2c1ncn2[C@@H]1O[C@H](CSCC[C@H](N)C(=O)O)[C@@H](O)[C@H]1O [SAH] | 4JWH for spTrm10-FL-SAH | 4JWJ for scTrm10_84-SAH |  | 
C[S+](CC[C@H](N)C(=O)O)C[C@H]1O[C@@H](n2cnc3c(N)ncnc32)[C@H](O)[C@@H]1O (stereo partly shown) [SAM] |  |  | 4.46 µM | 83.3 µM
